Results from patent US6063926A, “Substituted oximes as neurokinin antagonists” (Schering Corporation, priority 1998, dated 2000).

Target: NK1 receptor (Homo sapiens, UniProt P25103)
Experiment: neurokinin receptor binding assay, NK1 (Ki)
Conditions: compound of Example 11, amide disclosed in U.S. Pat. No. 5,696,267; read-out: Ki for the NK1 receptor (unit inferred)
Description: (§1) The in vitro and in vivo activity of the compounds of formula I can be determined by various procedures known in the art, such as a test for their ability to inhibit the activity of the NK1 agonist Substance P, an isolated hamster trachea NK2 assay, a test of the effect of NK1 antagonists on Substance P-induced airway microvascular leakage, measurement of NK2 activity in vivo in guinea pigs, measurement of bronchoconstriction due to NKA, and neurokinin receptor binding assay(s). Typical procedures are described in WO96/34857, published Nov. 7, 1996. NK3 activity is determined by following a procedure similar to that described in the literature, e.g., Molecular Pharmacol., 48 (1995), p. 711-716.
(§2) % Inhibition is the difference between the percent of maximum specific binding (MSB) and 100%. The percent of MSB is defined by the following equation, wherein "dpm" is disintegrations per minute: [formula]
(§3) Using the test procedures described above, the following 35 data (Ki) were obtained for exemplified compounds: […]

NK1 receptor, sequence (P25103 whole entry): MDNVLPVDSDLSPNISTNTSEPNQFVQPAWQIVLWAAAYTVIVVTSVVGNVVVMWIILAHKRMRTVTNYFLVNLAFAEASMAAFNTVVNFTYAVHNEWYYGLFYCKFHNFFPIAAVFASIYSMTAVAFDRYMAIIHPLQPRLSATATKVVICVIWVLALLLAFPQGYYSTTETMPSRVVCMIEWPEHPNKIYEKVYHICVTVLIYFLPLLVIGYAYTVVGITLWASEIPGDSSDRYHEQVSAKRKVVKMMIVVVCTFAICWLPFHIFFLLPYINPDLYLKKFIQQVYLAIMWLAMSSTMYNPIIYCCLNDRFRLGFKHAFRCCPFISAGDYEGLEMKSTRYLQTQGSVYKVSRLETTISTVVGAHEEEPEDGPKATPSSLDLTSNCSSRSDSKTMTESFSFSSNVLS

Row | SMILES | Ki [nM]
1 | CO/N=C(\CN(C)C(=O)c1cc(C(F)(F)F)cc(C(F)(F)F)c1)C(CCN1CCC(O)(c2ccccc2)CC1)c1ccc(Cl)c(Cl)c1 (stereo not drawn) [Example 11] | 3.6

Same assay, conditions: read-out: Ki (NK1)

Row | SMILES | Ki [nM]
2 | CON=C(CN(C)C(=O)c1cc(Cl)cc(Cl)c1)[C@H](CCN1CCC(N2CCCCC2=O)CC1)c1ccc(Cl)c(Cl)c1 [Example 13D] | 1.1
3 | CON=C(CN(C)C(=O)c1cc(Cl)cc(Cl)c1)[C@H](CCN1CCC(N2CCC[C@H](CC(=O)OC)C2=O)CC1)c1ccc(Cl)c(Cl)c1 [Example 13F] | 0.2
4 | CON=C(CN(C)C(=O)c1cc(Cl)cc(Cl)c1)C(CCN1CCC(N2CCCC(CC(=O)N3CCOCC3)C2=O)CC1)c1ccc(Cl)c(Cl)c1 (stereo not drawn) [Example 12K] | 0.9
5 | CNC(=O)CC1CCCN(C2CCN(CCC(C(CN(C)C(=O)c3cc(Cl)cc(Cl)c3)=NOCC#N)c3ccc(Cl)c(Cl)c3)CC2)C1=O (stereo not drawn) [Example 15B] | 1.7
6 | CON=C(CN(C)C(=O)c1cc(Cl)cc(Cl)c1)C(CCN1CCC(N2CCCC(CC(=O)N3CCC(OC)CC3)C2=O)CC1)c1ccc(Cl)c(Cl)c1 (stereo not drawn) [Example 25] | 0.9
7 | Cc1cc(C(=O)N(C)CC(=NOCC(N)=NO)C(CCN2CCC(O)(c3ccccc3)CC2)c2ccc(Cl)c(Cl)c2)cc(Cl)n1 (stereo not drawn) [Example 31] | 0.4
8 | CNC(=O)CC1CCCN(C2CCN(CCC(C(CN(C)C(=O)c3cc(Cl)cc(Cl)c3)=NOCC(=O)NCC#N)c3ccc(Cl)c(Cl)c3)CC2)C1=O (stereo not drawn) [Example 15I] | 0.8
9 | CON=C(N)CON=C(CN(C)C(=O)c1cc(Cl)cc(Cl)c1)C(CCN1CCC(N2CCCC(CC(=O)N(C)C)C2=O)CC1)c1ccc(Cl)c(Cl)c1 (stereo not drawn) [Example 14E] | 0.2
10 | CNC(=O)CC1CCCN(C2CCN(CCC(C(CN(C)C(=O)c3cc(Cl)cc(Cl)c3)=NOCC(=O)Nc3nncs3)c3ccc(Cl)c(Cl)c3)CC2)C1=O (stereo not drawn) [Example 15G] | 0.9
11 | CON=C(CN(C)C(=O)c1cc(Cl)cc(Cl)c1)C(CCN1CCC(N2CCCC(CC(=O)N3CCCC3)C2=O)CC1)c1ccc(Cl)c(Cl)c1 (stereo not drawn) [Example 12F] | 0.6
12 | CON=C(CN(C)C(=O)c1cc(Cl)cc(Cl)c1)[C@H](CCN1CCC(N2CCC[C@H](CC(=O)N(C)C)C2=O)CC1)c1ccc(Cl)c(Cl)c1 [Example 13A] | 0.8
13 | CON=C(CN(C)C(=O)c1cc(Cl)cc(Cl)c1)C(CCN1CCC(N2CCCC(CC(=O)N3CC(O)C3)C2=O)CC1)c1ccc(Cl)c(Cl)c1 (stereo not drawn) [Example 12E] | 0.4

Second part, the molecule after the results:

Row | Ki [nM] | SMILES
14 | 0.9 | Cc1cc(C)cc(C(=O)N(C)CC(=NOCC(=O)Nc2nncs2)C(CCN2CCC(N3CCCC(CC(=O)N(C)C)C3=O)CC2)c2ccc(Cl)c(Cl)c2)c1 (stereo not drawn) [Example 19D]
15 | 0.4 | CCN(CC(=NOC)C(CCN1CCC(N2CCC[C@H](CC(N)=O)C2=O)CC1)c1ccc(Cl)c(Cl)c1)C(=O)c1cc(Cl)cc(Cl)c1 (stereo partly drawn) [Example 28C]
16 | 0.8 | CON=C(CN(C)C(=O)c1cc(C)cc(C)c1)C(CCN1CCC(N2CCCCC2=O)CC1)c1ccc(Cl)c(Cl)c1 (stereo not drawn) [Example 18B]
17 | 0.4 | Cc1cc(C)cc(C(=O)N(C)CC(=NOCC#N)C(CCN2CCC(N3CCCCC3=O)CC2)c2ccc(Cl)c(Cl)c2)c1 (stereo not drawn) [Example 18D]
18 | 0.8 | CN(CC(=NOCF)C(CCN1CCC(N2CCCCC2=O)CC1)c1ccc(Cl)c(Cl)c1)C(=O)c1cc(Cl)cc(Cl)c1 (stereo not drawn) [Example 17S]

Target: T1, NK2 receptor (Homo sapiens, UniProt P21452)
T1 sequence (P21452 1-398): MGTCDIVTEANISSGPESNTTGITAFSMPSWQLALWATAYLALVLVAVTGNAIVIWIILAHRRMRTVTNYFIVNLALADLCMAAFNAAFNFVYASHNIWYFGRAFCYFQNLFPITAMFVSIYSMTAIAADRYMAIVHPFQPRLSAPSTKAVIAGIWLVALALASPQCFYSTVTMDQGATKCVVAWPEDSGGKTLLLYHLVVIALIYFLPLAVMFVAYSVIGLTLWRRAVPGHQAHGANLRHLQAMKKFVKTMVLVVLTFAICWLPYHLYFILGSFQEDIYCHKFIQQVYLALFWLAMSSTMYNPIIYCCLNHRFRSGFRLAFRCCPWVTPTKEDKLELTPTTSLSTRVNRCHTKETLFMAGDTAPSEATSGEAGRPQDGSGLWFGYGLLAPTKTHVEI
Experiment: neurokinin receptor binding assay, NK2 (Ki)
Conditions: compound of Example 11, amide disclosed in U.S. Pat. No. 5,696,267; read-out: Ki for the NK2 receptor (unit inferred)
Description: as §1, §2, §3

Row | SMILES | Ki [nM]
19 | CO/N=C(\CN(C)C(=O)c1cc(C(F)(F)F)cc(C(F)(F)F)c1)C(CCN1CCC(O)(c2ccccc2)CC1)c1ccc(Cl)c(Cl)c1 (stereo not drawn) [Example 11] | 9.2

Same assay, conditions: read-out: Ki (NK2)

Row | SMILES | Ki [nM]
20 | CON=C(CN(C)C(=O)c1cc(Cl)cc(Cl)c1)[C@H](CCN1CCC(N2CCCCC2=O)CC1)c1ccc(Cl)c(Cl)c1 [Example 13D] | 0.7
21 | CON=C(CN(C)C(=O)c1cc(Cl)cc(Cl)c1)[C@H](CCN1CCC(N2CCC[C@H](CC(=O)OC)C2=O)CC1)c1ccc(Cl)c(Cl)c1 [Example 13F] | 0.3
22 | CON=C(CN(C)C(=O)c1cc(Cl)cc(Cl)c1)C(CCN1CCC(N2CCCC(CC(=O)N3CCOCC3)C2=O)CC1)c1ccc(Cl)c(Cl)c1 (stereo not drawn) [Example 12K] | 0.5
23 | CNC(=O)CC1CCCN(C2CCN(CCC(C(CN(C)C(=O)c3cc(Cl)cc(Cl)c3)=NOCC#N)c3ccc(Cl)c(Cl)c3)CC2)C1=O (stereo not drawn) [Example 15B] | 0.8
24 | CON=C(CN(C)C(=O)c1cc(Cl)cc(Cl)c1)C(CCN1CCC(N2CCCC(CC(=O)N3CCC(OC)CC3)C2=O)CC1)c1ccc(Cl)c(Cl)c1 (stereo not drawn) [Example 25] | 0.7
25 | Cc1cc(C(=O)N(C)CC(=NOCC(N)=NO)C(CCN2CCC(O)(c3ccccc3)CC2)c2ccc(Cl)c(Cl)c2)cc(Cl)n1 (stereo not drawn) [Example 31] | 1.8
26 | CNC(=O)CC1CCCN(C2CCN(CCC(C(CN(C)C(=O)c3cc(Cl)cc(Cl)c3)=NOCC(=O)NCC#N)c3ccc(Cl)c(Cl)c3)CC2)C1=O (stereo not drawn) [Example 15I] | 1
27 | CON=C(N)CON=C(CN(C)C(=O)c1cc(Cl)cc(Cl)c1)C(CCN1CCC(N2CCCC(CC(=O)N(C)C)C2=O)CC1)c1ccc(Cl)c(Cl)c1 (stereo not drawn) [Example 14E] | 0.4
28 | CNC(=O)CC1CCCN(C2CCN(CCC(C(CN(C)C(=O)c3cc(Cl)cc(Cl)c3)=NOCC(=O)Nc3nncs3)c3ccc(Cl)c(Cl)c3)CC2)C1=O (stereo not drawn) [Example 15G] | 1.3
29 | CON=C(CN(C)C(=O)c1cc(Cl)cc(Cl)c1)C(CCN1CCC(N2CCCC(CC(=O)N3CCCC3)C2=O)CC1)c1ccc(Cl)c(Cl)c1 (stereo not drawn) [Example 12F] | 0.8
30 | CON=C(CN(C)C(=O)c1cc(Cl)cc(Cl)c1)[C@H](CCN1CCC(N2CCC[C@H](CC(=O)N(C)C)C2=O)CC1)c1ccc(Cl)c(Cl)c1 [Example 13A] | 0.2
31 | CON=C(CN(C)C(=O)c1cc(Cl)cc(Cl)c1)C(CCN1CCC(N2CCCC(CC(=O)N3CC(O)C3)C2=O)CC1)c1ccc(Cl)c(Cl)c1 (stereo not drawn) [Example 12E] | 0.2

Results, then the molecule that gave them:

Row | Ki [nM] | SMILES
32 | 1.4 | Cc1cc(C)cc(C(=O)N(C)CC(=NOCC(=O)Nc2nncs2)C(CCN2CCC(N3CCCC(CC(=O)N(C)C)C3=O)CC2)c2ccc(Cl)c(Cl)c2)c1 (stereo not drawn) [Example 19D]
33 | 0.6 | CCN(CC(=NOC)C(CCN1CCC(N2CCC[C@H](CC(N)=O)C2=O)CC1)c1ccc(Cl)c(Cl)c1)C(=O)c1cc(Cl)cc(Cl)c1 (stereo partly drawn) [Example 28C]
34 | 0.4 | CON=C(CN(C)C(=O)c1cc(C)cc(C)c1)C(CCN1CCC(N2CCCCC2=O)CC1)c1ccc(Cl)c(Cl)c1 (stereo not drawn) [Example 18B]
35 | 0.4 | Cc1cc(C)cc(C(=O)N(C)CC(=NOCC#N)C(CCN2CCC(N3CCCCC3=O)CC2)c2ccc(Cl)c(Cl)c2)c1 (stereo not drawn) [Example 18D]
36 | 0.8 | CN(CC(=NOCF)C(CCN1CCC(N2CCCCC2=O)CC1)c1ccc(Cl)c(Cl)c1)C(=O)c1cc(Cl)cc(Cl)c1 (stereo not drawn) [Example 17S]
